Results published in US20070219234A1, “Thienopyridine Derivatives” (priority 2004, published 2007).

Legend:
ST2 cells = assay: Osteoblast differentiation test (alkaline phosphatase activity); assay type: cell-based; details: Mus musculus, ST-2, 96 h; at 0.03 μg/mL; culturing for four days; control group (0.1% DMSO) = 100%; read-out: alkaline phosphatase activity increase rate
Description: ST2 cells (available from Institute of Physical and Chemical Research) which are stroma cells derived from mouse marrow were used. In this test, α-MEM medium (available from GIBCO BRL Cat. No. 10370-021) with which 10% (v/v) inactivated fetal bovine serum (available from Hyclone Company, FBS) and 1% (v/v) Penicillin-Streptomycin, Liquid (available from GIBCO BRL Cat. No. 15140-122) are mixed (hereinbelow abbreviated as 10% -FBS-αMEM) was used. Every culture in this test was conducted in a CO2 incubator (37° C., 95% humidity, 5% CO2).
The cells mentioned above were harvested with 2 mL of 0.25% trypsin solution (available from GIBCO BRL Cat. No. 15050-065) and after they were dispersed by adding 10 mL of 10% -FBS-αMEM, the cells were collected by centrifugal separation (25° C., 800 rpm, 5 minutes). A cell suspension containing 40,000 cells/mL was prepared from the collected cells using 10% -FBS-αMEM.
The cell suspension was dispensed to the wells of a 96 well microplate (Falcon company) in an amount of 100 μL per well so as to achieve 4,000 cells/well and cultured for 24 hours. Compounds were dispensed to the wells in final concentrations of 0.01, 0.03, 0.1, 0.3 μg/ml except the following control group. DMSO was dispensed to the wells of the control group in a final concentration of 0.1% (v/v). Alkaline phosphatase (ALP) activity was measured for each group after culturing for four days.
The measurement of ALP activity was performed as follows. That is, after the whole medium was removed from each well of the culturing plate, each well was washed twice by dispensing and removing 100 μL of Dulbecco's phosphate buffer (available from GIBCO BRL Cat. No. 14190-144). Cell lysing solution containing 10 mM MgCl2 and 2%(v/v) TritonX-100 (Sigma company) was prepared and 50 μL/well of the cell lysing solution was dispensed and the mixture was stirred at room temperature for five minutes. An ALP substrate solution containing 50 mM of diethanolamine (Wako Pure Chemical Industries, Ltd. Cat. No. 099-03112) and 20 mM of […] (Wako Pure Chemical Industries, Ltd. Cat. No. 147-02343) was prepared and 50 μL/well of the ALP substrate solution was dispensed and after allowing to stand at room temperature for 10 minutes, absorbance was measured using a microplate reader (Bio-rad company). Alkaline phosphatase activity increase rate (%) in the group blended with test compounds was calculated assuming the observed value of the control group of each plate to be 100% and evaluated as the osteoblast differentiation promoting activity.

[1] = test system: cells from femurs and tibias of ICR mice; assay: Osteoclast formation suppression test (TRAP activity); assay type: cell-based, mouse; details: 20 nM active form vitamin D3; compounds 0.01-0.3 μg/ml; culturing for five days
Description: 18 day-old ICR mice were purchased from Japan SLC, Inc. and used in the following experiments. The mice were sacrificed by cervical dislocation and the right and left femurs and tibias were extracted. After the tissue around the extracted femurs and tibias was removed, they were finely minced with scissors. 10 mL of 15%-FBS-αMEM was added to the minced femurs and tibias and the supernatant was collected after agitation for one minute and filtering with a cell strainer (Becton Dickinson company). A cell suspension containing 500,000 cells/mL was prepared with 15%-FBS-αMEM. The cell suspension was dispensed to the wells of a 96 well microplate (Falcon company) in an amount of 100 μL per well so as to achieve 50,000 cells/well and cultured for 24 hours. Active form vitamin D3 (Sigma company, Cat.No.D1530) was dispensed to the wells in final concentrations of 20 nM. Compounds were dispensed to the wells in final concentrations of 0.01, 0.03, 0.1, 0.3 μg/ml except the following control group. DMSO was dispensed to the wells of the control group in a final concentration of 0.1% (v/v). Tartrate-resistant acid phosphatase (TRAP) activity was measured for each group after culturing for five days.
The measurement of TRAP activity was performed as follows. That is, after the whole medium was removed from each well of the culturing plate, each well was washed twice by dispensing and removing 100 μL of Dulbecco's phosphate buffer (available from GIBCO BRL Cat. No. 14190-144). After retaining with a mixture of acetone-ethanol (1:1) for one minute, the retention liquid was removed and the wells were stained at 37° C. with Leukocyte acid phosphatase kit (Sigma company, Cat. No. 387-A) for 30 minutes. The staining solution was removed, then 100 μL of 10% sodium dodecylsulfate (Wako Pure Chemical Industries, Ltd. Cat. No. 191-07145) was dispensed and the mixture was stirred for five minutes, and then absorbance was measured using a microplate reader (Bio-rad company). TRAP activity decrease rate (%) in the group blended with test compounds was calculated assuming the observed value of the control group of each plate to be 100% and evaluated as the osteoclast formation suppression activity.

SMILES | melting point | activity at 0.03 µg/mL (ST2 cells) [%] | osteoclast formation suppression effect (TRAP activity decrease rate) [1]
NC(=O)c1sc2nccc(N3CC[C@@H]4CCCC[C@@H]4C3)c2c1N (relative stereo) [Example 29, 3-amino-4-(cis-perhydroisoquinolin-2-yl)thieno[2,3-b]pyridine-2-carboxamide] | 224 to 226 °C | > 150 | –
NC(=O)c1sc2nccc(N3CCCCC3)c2c1N [Example 14, 3-amino-4-piperidin-1-ylthieno[2,3-b]pyridine-2-carboxamide] | 191 to 192 °C | > 150 | –
CC1CCCN(c2ccnc3sc(C(N)=O)c(N)c23)C1 (stereo not drawn) [Example 16, 3-amino-4-(3-methylpiperidin-1-yl)thieno[2,3-b]pyridine-2-carboxamide] | 201 to 204 °C | > 150 | –
NC(=O)c1sc2nccc(N3CCCC(CO)C3)c2c1N (stereo not drawn) [Example 17, 3-amino-4-[3-(hydroxymethyl)piperidin-1-yl]thieno[2,3-b]pyridine-2-carboxamide] | 125 to 130 °C | > 150 | –
NC(=O)c1sc2nccc(N3CCSCC3)c2c1N [Example 24, 3-amino-4-thiomorpholin-4-ylthieno[2,3-b]pyridine-2-carboxamide] | 255 to 258 °C | > 150 | –
Cc1cccc(N2CCCN(c3ccnc4sc(C(N)=O)c(N)c34)CC2)c1 [Example 65, 3-amino-4-[4-(3-toluyl)-1,4-diazepan-1-yl]thieno[2,3-b]pyridine-2-carboxamide] | 209 to 212 °C | > 150 | excellent osteoclast formation suppression effect
COc1cccc(N2CCCN(c3ccnc4sc(C(N)=O)c(N)c34)CC2)c1 [Example 68, 3-amino-4-[4-(3-methoxyphenyl)-1,4-diazepan-1-yl]thieno[2,3-b]pyridine-2-carboxamide] | 193 to 195 °C | > 150 | –
NC(=O)c1sc2nccc(N3CCCN(c4ccc5c(c4)OCCO5)CC3)c2c1N [Example 72, 3-amino-4-[4-(2,3-dihydro-1,4-benzodioxin-6-yl)-1,4-diazepan-1-yl]thieno[2,3-b]pyridine-2-carboxamide] | 104 to 107 °C | > 150 | excellent osteoclast formation suppression effect
NC(=O)c1sc2nccc(N3CCCN(c4nccs4)CC3)c2c1N [Example 97, 3-amino-4-[4-(1,3-thiazol-2-yl)-1,4-diazepan-1-yl]thieno[2,3-b]pyridine-2-carboxamide] | 243 to 245 °C | > 150 | excellent osteoclast formation suppression effect
COc1ccc(N2CCCN(c3ccnc4sc(C(N)=O)c(N)c34)CC2)cn1 [Example 98, 3-amino-4-[4-(6-methoxypyridin-3-yl)-1,4-diazepan-1-yl]thieno[2,3-b]pyridine-2-carboxamide] | 170 to 172 °C | > 150 | –

Continued, in another order:

melting point | SMILES | activity at 0.03 µg/mL (ST2 cells) [%] | osteoclast formation suppression effect (TRAP activity decrease rate) [1]
206 to 208 °C | COc1ccc(N2CCCN(c3ccnc4sc(C(N)=O)c(N)c34)CC2)cc1 [Example 58, 3-amino-4-[4-(4-methoxyphenyl)-1,4-diazepan-1-yl]thieno[2,3-b]pyridine-2-carboxamide] | > 150 | –
244 to 248 °C | NC(=O)c1sc2nccc(N3CCCN(c4ccc([N+](=O)[O-])cc4)CC3)c2c1N [Example 59, 3-amino-4-[4-(4-nitrophenyl)-1,4-diazepan-1-yl]thieno[2,3-b]pyridine-2-carboxamide] | > 150 | –
186 to 188 °C | CSc1ccc(N2CCCN(c3ccnc4sc(C(N)=O)c(N)c34)CC2)cc1 [Example 64, 3-amino-4-{4-[4-(methylthio)phenyl]-1,4-diazepan-1-yl}thieno[2,3-b]pyridine-2-carboxamide] | > 150 | –
153 to 157 °C | C[S+]([O-])c1ccc(N2CCCN(c3ccnc4sc(C(N)=O)c(N)c34)CC2)cc1 (stereo not drawn) [Example 66, 3-amino-4-{4-[4-(methylsulfinyl)phenyl]-1,4-diazepan-1-yl}thieno[2,3-b]pyridine-2-carboxamide] | > 150 | excellent osteoclast formation suppression effect
174 to 176 °C | CN(C)c1ccc(N2CCCN(c3ccnc4sc(C(N)=O)c(N)c34)CC2)cc1 [Example 74, 3-amino-4-{4-[4-(dimethylamino)phenyl]-1,4-diazepan-1-yl}thieno[2,3-b]pyridine-2-carboxamide] | > 150 | –
203 to 205 °C | NC(=O)c1sc2nccc(N3CCCN(c4ccc(F)cc4)CC3)c2c1N [Example 76, 3-amino-4-[4-(4-fluorophenyl)-1,4-diazepan-1-yl]thieno[2,3-b]pyridine-2-carboxamide] | > 150 | –
175 to 176 °C | Cc1ccc(N2CCCN(c3ccnc4sc(C(N)=O)c(N)c34)CC2)cc1 [Example 77, 3-amino-4-[4-(4-methylphenyl)-1,4-diazepan-1-yl]thieno[2,3-b]pyridine-2-carboxamide] | > 150 | –
181 to 183 °C | CCOc1ccc(N2CCCN(c3ccnc4sc(C(N)=O)c(N)c34)CC2)cc1 [Example 83, 3-amino-4-[4-(4-ethoxyphenyl)-1,4-diazepan-1-yl]thieno[2,3-b]pyridine-2-carboxamide] | > 150 | excellent osteoclast formation suppression effect
195 to 197 °C | Cc1ccc(N2CCCN(c3ccnc4sc(C(N)=O)c(N)c34)CC2)cc1C [Example 84, 3-amino-4-[4-(3,4-dimethylphenyl)-1,4-diazepan-1-yl]thieno[2,3-b]pyridine-2-carboxamide] | > 150 | –
186 to 188 °C | CCc1ccc(N2CCCN(c3ccnc4sc(C(N)=O)c(N)c34)CC2)cc1 [Example 93, 3-amino-4-[4-(4-ethylphenyl)-1,4-diazepan-1-yl]thieno[2,3-b]pyridine-2-carboxamide] | > 150 | –
279 to 282 °C (dec.) | CC(=O)c1ccc(N2CCCN(c3ccnc4sc(C(N)=O)c(N)c34)CC2)cc1 [Example 94, 4-[4-(4-acetylphenyl)-1,4-diazepan-1-yl]-3-aminothieno [2,3-b]pyridine-2-carboxamide] | > 150 | excellent osteoclast formation suppression effect
